Activity calls are given as the source filed them.
Assays:
Streptococcus = experiment: Group A Streptococcus viability loss, dose response, counter-screen for streptokinase expression inhibitor project, luminescence, BacTiterGlo (AID 1915); type: functional, organism-based;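 also: potency for reduction of bacterial viability or growth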
[1] = test system: Streptococcus sp. 'group A'; experiment: growth inhibition of control SK(-) GAS strain, dose response, counter-screen for streptokinase expression inhibitor project, luminescence, kanamycin, BacTiterGlo, confirmation (AID 1900); type: functional, organism-based
H9c2 = experiment: cells; type: functional, cell-based; conditions: Rattus norvegicus, H9c2, Myocardium;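 also: confirmatory concentration-response retest of ultra-high-throughput screening hits for modulation of myocardial damage; cell death induced by hydrogen peroxide oxidative stress; compound pretreatment for 60 min then peroxide exposure for 2 h; potency is for protecting the cells against peroxide damage rather than for killing them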
[2] = biological target: T1, Mannose-6-phosphate isomerase (Homo sapiens, UniProt P34949); experiment: human PMI inhibitors, high substrate, primary screen, biochemical, fluorescence intensity, high mannose 6-phosphate (AID 1220)
T1 sequence (P34949 whole entry): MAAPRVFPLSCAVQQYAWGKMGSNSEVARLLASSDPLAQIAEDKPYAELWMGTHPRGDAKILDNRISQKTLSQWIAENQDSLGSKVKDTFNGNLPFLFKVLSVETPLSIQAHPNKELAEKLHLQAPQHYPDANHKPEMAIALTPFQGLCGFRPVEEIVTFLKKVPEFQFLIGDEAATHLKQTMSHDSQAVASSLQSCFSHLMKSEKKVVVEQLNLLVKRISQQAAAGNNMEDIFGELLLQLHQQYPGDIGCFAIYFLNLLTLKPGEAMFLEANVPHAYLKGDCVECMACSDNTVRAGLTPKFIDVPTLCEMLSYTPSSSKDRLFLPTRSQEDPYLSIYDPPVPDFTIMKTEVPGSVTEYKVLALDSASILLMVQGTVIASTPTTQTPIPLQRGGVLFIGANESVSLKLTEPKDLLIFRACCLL

[3] = biological target: Induced myeloid leukemia cell differentiation protein Mcl-1 (Homo sapiens, UniProt Q07820); type: functional
Sequence of Induced myeloid leukemia cell differentiation protein Mcl-1 (Q07820 whole entry): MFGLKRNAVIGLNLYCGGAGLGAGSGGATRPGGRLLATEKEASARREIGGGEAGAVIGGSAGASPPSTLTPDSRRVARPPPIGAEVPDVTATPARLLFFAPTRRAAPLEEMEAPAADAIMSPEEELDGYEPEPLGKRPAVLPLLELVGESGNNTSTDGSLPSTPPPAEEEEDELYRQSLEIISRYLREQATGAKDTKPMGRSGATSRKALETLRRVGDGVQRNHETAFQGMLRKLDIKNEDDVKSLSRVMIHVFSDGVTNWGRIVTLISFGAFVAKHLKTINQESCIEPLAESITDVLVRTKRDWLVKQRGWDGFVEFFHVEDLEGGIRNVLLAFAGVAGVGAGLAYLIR

Protein skinhead-1 = biological target: T2, Protein skinhead-1 (Caenorhabditis elegans, UniProt P34707); type: functional
T2 sequence (P34707 whole entry): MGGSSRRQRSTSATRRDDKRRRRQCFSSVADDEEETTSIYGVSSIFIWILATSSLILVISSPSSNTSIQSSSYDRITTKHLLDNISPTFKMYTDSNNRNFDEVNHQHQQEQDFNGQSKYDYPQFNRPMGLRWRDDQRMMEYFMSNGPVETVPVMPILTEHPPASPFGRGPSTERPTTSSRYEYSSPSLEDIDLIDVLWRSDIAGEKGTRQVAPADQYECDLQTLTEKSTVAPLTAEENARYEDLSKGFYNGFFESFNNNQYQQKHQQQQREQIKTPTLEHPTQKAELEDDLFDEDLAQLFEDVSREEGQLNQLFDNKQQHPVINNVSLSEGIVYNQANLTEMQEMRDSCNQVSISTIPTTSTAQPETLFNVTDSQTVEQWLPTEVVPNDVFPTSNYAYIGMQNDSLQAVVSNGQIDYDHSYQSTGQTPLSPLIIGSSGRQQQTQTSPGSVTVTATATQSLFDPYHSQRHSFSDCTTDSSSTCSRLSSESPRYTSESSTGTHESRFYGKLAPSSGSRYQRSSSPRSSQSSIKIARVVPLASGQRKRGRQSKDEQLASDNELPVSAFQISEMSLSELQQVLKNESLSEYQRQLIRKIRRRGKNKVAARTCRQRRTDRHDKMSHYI

[4] = biological target: T3, Histone-lysine N-methyltransferase NSD2 (Homo sapiens, UniProt O96028); type: biochemical
T3 sequence (O96028 whole entry): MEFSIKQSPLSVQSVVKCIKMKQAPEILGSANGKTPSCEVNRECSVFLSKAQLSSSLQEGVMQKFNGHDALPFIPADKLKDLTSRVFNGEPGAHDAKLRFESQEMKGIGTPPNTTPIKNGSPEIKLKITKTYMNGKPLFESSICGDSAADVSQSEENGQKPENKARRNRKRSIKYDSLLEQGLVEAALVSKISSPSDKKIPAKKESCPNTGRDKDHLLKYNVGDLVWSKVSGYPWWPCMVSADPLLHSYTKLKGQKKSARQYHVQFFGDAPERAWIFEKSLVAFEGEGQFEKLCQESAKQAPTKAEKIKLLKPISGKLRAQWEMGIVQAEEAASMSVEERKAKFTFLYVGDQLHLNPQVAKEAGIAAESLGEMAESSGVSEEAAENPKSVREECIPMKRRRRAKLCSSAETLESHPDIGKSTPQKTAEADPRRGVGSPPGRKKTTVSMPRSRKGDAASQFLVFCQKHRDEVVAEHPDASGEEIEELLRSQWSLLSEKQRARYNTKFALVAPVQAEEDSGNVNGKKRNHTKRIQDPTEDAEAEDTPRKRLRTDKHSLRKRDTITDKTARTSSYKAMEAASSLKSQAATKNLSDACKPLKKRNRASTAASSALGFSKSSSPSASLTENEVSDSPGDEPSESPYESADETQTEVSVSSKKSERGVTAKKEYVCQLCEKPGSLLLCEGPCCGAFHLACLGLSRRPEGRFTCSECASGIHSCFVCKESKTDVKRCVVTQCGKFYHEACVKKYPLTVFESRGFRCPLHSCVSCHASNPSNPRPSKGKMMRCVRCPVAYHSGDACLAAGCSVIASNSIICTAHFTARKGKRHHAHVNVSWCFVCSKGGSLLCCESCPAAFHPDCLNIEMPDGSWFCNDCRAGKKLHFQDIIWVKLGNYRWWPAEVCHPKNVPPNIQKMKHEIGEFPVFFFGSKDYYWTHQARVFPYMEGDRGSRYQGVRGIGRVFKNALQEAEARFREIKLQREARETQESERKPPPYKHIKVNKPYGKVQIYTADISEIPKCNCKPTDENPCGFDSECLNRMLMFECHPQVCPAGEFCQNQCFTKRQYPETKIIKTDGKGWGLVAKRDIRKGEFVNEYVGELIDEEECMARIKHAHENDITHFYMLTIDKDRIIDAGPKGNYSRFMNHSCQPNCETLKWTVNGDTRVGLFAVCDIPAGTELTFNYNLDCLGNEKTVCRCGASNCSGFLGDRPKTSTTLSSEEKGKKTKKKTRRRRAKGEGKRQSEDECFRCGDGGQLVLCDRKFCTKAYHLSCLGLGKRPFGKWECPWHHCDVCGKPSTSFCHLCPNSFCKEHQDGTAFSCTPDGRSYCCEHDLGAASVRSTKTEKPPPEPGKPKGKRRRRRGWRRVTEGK

Nonstructural protein 1 = Nonstructural protein 1 (Influenza A virus, UniProt Q194T2); type: functional, Influenza A virus (A/California/07/2009(H1N1))
Sequence of Nonstructural protein 1 (Q194T2 whole entry): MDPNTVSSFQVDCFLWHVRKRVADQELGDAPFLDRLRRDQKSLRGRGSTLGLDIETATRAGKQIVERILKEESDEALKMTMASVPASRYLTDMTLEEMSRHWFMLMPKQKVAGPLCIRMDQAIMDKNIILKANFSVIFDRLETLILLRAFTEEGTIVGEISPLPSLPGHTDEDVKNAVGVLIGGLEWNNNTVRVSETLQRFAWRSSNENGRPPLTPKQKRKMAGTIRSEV

[5] = microbe, parasite or virus in culture; type: functional; conditions: Mycobacterium tuberculosis
[6] = growth suppression of PTEN-null colon cells, dose response, cell-based, HCT116 PTEN knockout (AID 1047); type: functional;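 also: HCT116 colon tumor cells with PTEN knocked out; cells exposed to compound for 60 hours before readout; potency for loss of cell viability measured by luminescence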
[7] = growth suppression of beta-catenin-knockout colon cells, dose response, cell-based, HCT116, human colon tumor (AID 1045); type: functional;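 also: HCT116 colon tumor cells with beta catenin knocked out; cells exposed to compound for 60 hours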
Streptokinase A = biological target: T4, Streptokinase A (Streptococcus pyogenes serotype M1, UniProt P10520); experiment: S. pyogenes streptokinase expression inhibitors, potency, dose response, plasminogen activation absorbance, OD405 (AID 1914); type: functional, Streptococcus pyogenes M1 GAS;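 also: secreted streptokinase activity via plasminogen activation per viability signal from cell pellet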
T4 sequence (P10520 whole entry): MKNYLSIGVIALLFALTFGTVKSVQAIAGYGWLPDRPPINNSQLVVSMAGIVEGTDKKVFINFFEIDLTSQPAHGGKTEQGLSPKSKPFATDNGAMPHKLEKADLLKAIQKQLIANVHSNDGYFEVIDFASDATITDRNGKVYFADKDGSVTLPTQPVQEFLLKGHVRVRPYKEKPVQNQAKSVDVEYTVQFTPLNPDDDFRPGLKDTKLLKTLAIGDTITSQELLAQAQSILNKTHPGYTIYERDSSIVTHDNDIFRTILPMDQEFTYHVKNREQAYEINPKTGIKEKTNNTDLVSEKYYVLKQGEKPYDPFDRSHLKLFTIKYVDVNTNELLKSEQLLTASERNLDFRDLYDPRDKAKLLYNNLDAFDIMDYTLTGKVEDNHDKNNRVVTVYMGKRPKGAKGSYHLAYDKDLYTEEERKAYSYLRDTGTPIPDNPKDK

Large T antigen = Large T antigen (Simian virus 40, UniProt P03070); type: functional, Betapolyomavirus macacae;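 also: Confirmatory-stage PubChem screen for compounds that inhibit SV40 T antigen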
Sequence of Large T antigen (P03070 whole entry): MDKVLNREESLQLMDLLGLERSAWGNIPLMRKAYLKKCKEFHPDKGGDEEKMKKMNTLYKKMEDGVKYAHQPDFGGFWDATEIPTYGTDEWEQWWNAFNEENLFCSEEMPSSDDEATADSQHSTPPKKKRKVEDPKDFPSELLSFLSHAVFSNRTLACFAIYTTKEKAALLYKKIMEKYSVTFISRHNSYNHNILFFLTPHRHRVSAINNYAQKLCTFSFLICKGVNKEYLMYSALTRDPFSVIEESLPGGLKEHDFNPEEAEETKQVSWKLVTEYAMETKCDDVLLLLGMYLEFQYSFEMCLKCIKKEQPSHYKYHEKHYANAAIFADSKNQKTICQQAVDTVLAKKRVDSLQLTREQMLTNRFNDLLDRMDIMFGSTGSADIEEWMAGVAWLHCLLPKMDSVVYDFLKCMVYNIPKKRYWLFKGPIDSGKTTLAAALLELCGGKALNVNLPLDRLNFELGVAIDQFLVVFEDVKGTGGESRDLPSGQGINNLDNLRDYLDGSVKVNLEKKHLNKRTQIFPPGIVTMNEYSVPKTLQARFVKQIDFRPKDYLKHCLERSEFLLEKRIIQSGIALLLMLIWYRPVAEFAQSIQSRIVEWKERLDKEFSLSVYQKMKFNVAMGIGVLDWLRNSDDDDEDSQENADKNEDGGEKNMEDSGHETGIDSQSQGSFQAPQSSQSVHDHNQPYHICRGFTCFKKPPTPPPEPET

[8] = HEp-2 cell cytotoxicity, dose response, cytotoxicity control for RSV inhibitor project, HTS (AID 2410); type: functional; conditions: human respiratory syncytial virus
[9] = biological target: T5, Rac GTPase-activating protein 1 (Homo sapiens, UniProt Q9H0H5); experiment: MgcRacGAP GTPase-activating activity inhibitors, confirmation, biochemical, ADP Hunter fluorescence, primary and confirmatory (AID 624330); type: functional
T5 sequence (Q9H0H5 whole entry): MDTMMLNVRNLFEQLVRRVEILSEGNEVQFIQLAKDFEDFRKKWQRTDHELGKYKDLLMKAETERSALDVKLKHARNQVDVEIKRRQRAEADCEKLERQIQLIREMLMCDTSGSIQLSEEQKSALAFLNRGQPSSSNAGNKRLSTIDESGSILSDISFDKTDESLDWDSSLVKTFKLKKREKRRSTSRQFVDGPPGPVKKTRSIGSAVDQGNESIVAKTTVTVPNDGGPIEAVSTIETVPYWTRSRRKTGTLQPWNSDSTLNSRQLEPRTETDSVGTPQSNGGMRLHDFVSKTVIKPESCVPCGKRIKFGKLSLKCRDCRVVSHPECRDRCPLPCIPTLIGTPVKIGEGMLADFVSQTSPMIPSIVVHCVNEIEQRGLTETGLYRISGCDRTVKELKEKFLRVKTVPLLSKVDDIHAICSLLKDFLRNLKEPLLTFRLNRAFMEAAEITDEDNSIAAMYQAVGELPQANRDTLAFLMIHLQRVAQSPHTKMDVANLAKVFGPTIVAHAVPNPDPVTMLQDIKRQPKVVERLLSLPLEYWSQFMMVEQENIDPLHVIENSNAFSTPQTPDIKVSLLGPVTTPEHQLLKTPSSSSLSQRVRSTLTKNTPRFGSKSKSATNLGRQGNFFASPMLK

[10] = biological target: DNA dC->dU-editing enzyme APOBEC-3G (Homo sapiens, UniProt Q9HC16); type: functional;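 also: Dose-response counterscreen measuring inhibition of APOBEC3G DNA deaminase activity, run while confirming APOBEC3A inhibitors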
Sequence of DNA dC->dU-editing enzyme APOBEC-3G (Q9HC16 whole entry): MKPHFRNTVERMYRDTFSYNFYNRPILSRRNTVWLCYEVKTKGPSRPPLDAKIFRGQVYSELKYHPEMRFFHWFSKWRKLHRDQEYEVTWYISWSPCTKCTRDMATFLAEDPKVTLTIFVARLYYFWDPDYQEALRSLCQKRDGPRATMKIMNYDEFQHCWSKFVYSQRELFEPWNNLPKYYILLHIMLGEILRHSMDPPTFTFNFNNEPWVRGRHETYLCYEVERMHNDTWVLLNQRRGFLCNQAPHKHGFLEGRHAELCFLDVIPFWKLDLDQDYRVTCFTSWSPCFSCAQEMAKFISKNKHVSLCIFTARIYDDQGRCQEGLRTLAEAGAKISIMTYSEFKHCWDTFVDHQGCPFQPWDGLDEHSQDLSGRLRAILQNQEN

[11] = biological target: DNA dC->dU-editing enzyme APOBEC-3A (Homo sapiens, UniProt P31941); experiment: Dose Response confirmation of small molecule APOBEC3A DNA Deaminase Inhibitors via a fluorescence-based single-stranded DNA deaminase assay. [Related pubchem assays (depositor defined):AID493011, AID493024]; type: functional
Sequence of DNA dC->dU-editing enzyme APOBEC-3A (P31941 whole entry): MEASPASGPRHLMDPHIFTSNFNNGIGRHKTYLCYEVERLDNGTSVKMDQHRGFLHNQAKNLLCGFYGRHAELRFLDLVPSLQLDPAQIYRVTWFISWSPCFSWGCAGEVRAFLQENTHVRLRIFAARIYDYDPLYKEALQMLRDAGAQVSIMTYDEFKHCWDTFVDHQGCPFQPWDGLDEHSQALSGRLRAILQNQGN

CCOC(=O)c1ccc(NC(=O)c2[nH]cnc2C(=O)NCCCCCNC(=O)OC(C)(C)C)cc1
EC50 (Streptococcus): 5.74 µM (active)
EC50 [1]: 3.49 µM (active)
IC50 (H9c2): > 79 µM (inactive)

Nc1cc2nc[nH]c2cc1N
IC50 [2]: > 50 µM (not active)
IC50 [3]: > 54 µM (not active)

Clc1ccc(OCc2nc(-c3ccncc3)no2)c(Br)c1
IC50 (Protein skinhead-1): 31.6 µM (active)

COc1ccc(/C=C2\SC(=O)N(CC(=O)Nc3ccccc3O)C2=O)cc1OC
IC50 (Protein skinhead-1): > 100 µM (inactive)

CC(C)c1ccc(N(CC(=O)Nc2ccc(S(=O)(=O)N3CCOCC3)cc2)S(C)(=O)=O)cc1
IC50 (Protein skinhead-1): > 100 µM (inactive)

CN(C)c1cccc2c1C(=O)c1ccccc1C2=O
AC50 [4]: 5.57 µM (active)
IC50 (Nonstructural protein 1): 10.1 µM (active)

Cc1cncn1CCc1nc2c3ccccc3nc(SCC(=O)Nc3cccc(Cl)c3)n2n1
CC50 [5]: 14.3 µM (active)
EC50 [6]: 13.3 µM (active)
EC50 [7]: 10.7 µM (active)

CC(=O)O[C@H]1C[C@@]2(C)[C@@H](C[C@@H](O)[C@H]3[C@@]4(C)CC[C@@H](O)[C@@H](C)[C@@H]4CC[C@@]32C)/C1=C(\CCC=C(C)C)C(=O)O
EC50 (Streptokinase A): 0.362 µM (active)
EC50 (Streptococcus): 0.947 µM (active)
IC50 (Large T antigen): 20.4 µM (active)
EC50 [1]: 0.161 µM (active)

CN(C(=O)CSCC(=O)Nc1ccc(Cl)cc1)C1CCCCC1
IC50 (Protein skinhead-1): > 100 µM (inactive)

COc1ccc(N2CCN(C(=O)c3ccc(CSc4ccccc4)cc3)CC2)cc1
IC50 [3]: 4.83 µM (not active)

Oc1ccc(/C=N/Nc2ccc(C(F)(F)F)cn2)cc1O
IC50 (Large T antigen): 48.3 µM (active)

Cc1cccc(C(=O)NC(C(=O)Nc2nc(-c3ccccn3)cs2)C(C)C)c1 (stereo not drawn)
EC50 (Streptokinase A): > 150 µM (not active)
EC50 (Streptococcus): 17.1 µM (active)
EC50 [1]: 6.29 µM (active)
IC50 (H9c2): 8.6 µM (active)

Cc1c(OC(=O)CNC(=O)OC(C)(C)C)ccc2c3c(c(=O)oc12)CCC3
CC50 [8]: 36.9 µM (active)
IC50 (Protein skinhead-1): > 100 µM (inactive)

CC(C)(C)c1cc(C(=O)N/N=C/c2ccc(O)cc2)n(-c2ccccc2)n1
IC50 (Large T antigen): 46.2 µM (active)
IC50 [9]: 122 µM (active)

O=C(CCc1nc(O)c2ccccc2n1)OCC(=O)N1CCc2ccccc21
IC50 (H9c2): > 79 µM (inactive)

CCOc1ccc(/C=N/n2nnnc2N)cc1O
IC50 (Large T antigen): 9.64 µM (active)

COc1ccc(NC(=O)CSC2=C(C#N)C(c3ccco3)C(C(=O)Nc3nc4ccccc4s3)=C(C)N2)cc1 (stereo not drawn)
CC50 [5]: > 40 µM (active)

CSc1nc(Cl)c(Br)c(N2CC2)n1
IC50 (H9c2): > 79 µM (inactive)

Cc1cccc(C(=O)N[C@H](C(=O)OCc2cc(=O)n3c(n2)sc2ccccc23)C(C)C)c1
EC50 (Streptokinase A): > 150 µM (not active)
EC50 (Streptococcus): 40.5 µM (active)
IC50 [10]: 24.5 µM (active)
EC50 [1]: 26.2 µM (active)
IC50 [11]: 14.7 µM (active)

O=C1N[C@H](Cc2ccccc2)COC(=O)[C@@H](Cc2ccc(F)cc2)C/C=C\C[C@H]1CC(=O)N(CCO)Cc1ccccc1
IC50 (H9c2): > 79 µM (inactive)

— ChEMBL document CHEMBL1201862, “PubChem BioAssay data set” (2004)
